Results taken from article PMC11191083 (ACS Omega, 2024).
Where two headings read alike, the source gives them in different places.

What was measured:
[1] = tested on: E. coli MG1655 + pBGS18 + CTX-M-2; test: MIC broth microdilution, ceftazidime with or without inhibitor; type: cell-based, Escherichia coli; conditions: for MIC of ceftazidime in the presence of inhibitor: CTX-M-2 (ESBL), inhibitor concentration 16 μg mL^–1
[2] = tested on: E. coli TG1 + pBGS18 + FOX-4; test: as above; type: cell-based, Escherichia coli; conditions: for MIC of ceftazidime in the presence of inhibitor: FOX-4 (Class C, ESBL), inhibitor concentration 16 μg mL^–1; for MIC: Escherichia coli
[3] = tested on: E. coli TG1 + pBGS18 + DHA-1; test: as above; type: cell-based, Escherichia coli; conditions: for MIC of ceftazidime in the presence of inhibitor: DHA-1 (Class C, ESBL), inhibitor concentration 16 μg mL^–1; for MIC: Escherichia coli
[4] = tested on: K. pneumoniae ΔompK35/36+ pBGS18+ OXA-48; test: MIC broth microdilution, imipenem with or without inhibitor; type: cell-based, Klebsiella pneumoniae; conditions: for MIC of imipenem in the presence of inhibitor: OXA-48 (Class D, carbapenemase), inhibitor concentration 16 μg mL^–1; for MIC: Klebsiella pneumoniae
[5] = tested on: E. coli MG1655 + pBGS18 + CTX-M-14; test: MIC broth microdilution, ampicillin with or without inhibitor; type: cell-based, Escherichia coli; conditions: CTX-M-14 (Class A, ESBL); inhibitor concentration 16 μg mL^–1; 20 h, 37 °C
[6] = tested on: E. coli TG1 + pBGS18 + CMY-2; test: MIC broth microdilution, ceftazidime with or without inhibitor; type: cell-based, Escherichia coli; conditions: for MIC of ceftazidime in the presence of inhibitor: CMY-2 (Class C, ESBL), inhibitor concentration 16 μg mL^–1; for MIC: Escherichia coli
[7] = tested on: P. aeruginosa PAO ΔampD (PDC-1); test: as above; type: cell-based; conditions: Pseudomonas aeruginosa
[8] = read-out: MIC of ceftazidime without an inhibitor
[9] = read-out: MIC of ceftazidime, strain without β-lactamase

Compound	MIC of ceftazidime in the presence of inhibitor [1]	MIC of ceftazidime in the presence of inhibitor [2]	MIC of ceftazidime in the presence of inhibitor [3]	MIC of imipenem in the presence of inhibitor [4]	MIC of ampicillin in the presence of inhibitor [5]	MIC of ceftazidime in the presence of inhibitor [6]	also measured
C[C@]1(COC(=O)c2cc(Cl)ccc2O)[C@H](C(=O)[O-])N2C(=O)/C(=C/c3ccccn3)[C@H]2S1(=O)=O.[Na+] [Compound 5]	64 μg mL^–1	16 μg mL^–1	0.12 μg mL^–1	16 μg mL^–1	512 μg mL^–1	–	–
C[C@@H](O)[C@H]1C(=O)N2C(C(=O)O)=C(SCCN=CN)C[C@H]12 [IP, imipenem, reference compound]	–	–	–	–	–	–	MIC ([4]; read-out: MIC of imipenem without an inhibitor): 64 µg/mL; MIC ([4]; read-out: MIC of imipenem, strain without β-lactamase): 0.5 µg/mL
C[C@]1(COC(=O)CCc2ccc(O)c(O)c2)[C@H](C(=O)[O-])N2C(=O)/C(=C/c3ccccn3)[C@H]2S1(=O)=O.[Na+] [Compound 3]	2 μg mL^–1	0.12 μg mL^–1	≤0.06 μg mL^–1	16 μg mL^–1	32 μg mL^–1	≤0.06 μg mL^–1	–
CC(C)(O/N=C(\C(=O)N[C@@H]1C(=O)N2C(C(=O)[O-])=C(C[n+]3ccccc3)CS[C@H]12)c1csc(N)n1)C(=O)O [CAZ, ceftazidime, reference compound]	–	–	–	–	–	–	MIC [6, 8]: 16 µg/mL; MIC [6, 9]: ≤ 0.06 µg/mL; MIC ([1]; Escherichia coli, MG1655, read-out: MIC of ceftazidime without an inhibitor): 1020 µg/mL; MIC [2, 8]: > 64 µg/mL; MIC [2, 9]: ≤ 0.06 µg/mL; MIC [7, 8]: 8 µg/mL; MIC [7, 9]: 1 µg/mL; MIC [3, 8]: 32 µg/mL; MIC [3, 9]: ≤ 0.06 µg/mL
CC1(C)[C@H](C(=O)[O-])N2C(=O)/C(=C/c3cc(CCCOC(=O)Cc4ccc(O)c(O)c4)ccn3)[C@H]2S1(=O)=O.[Na+] [Compound 8]	256 μg mL^–1	8 μg mL^–1	8 μg mL^–1	32 μg mL^–1	1024 μg mL^–1	4 μg mL^–1	–
C[C@]1(COC(=O)c2ccncc2O)[C@H](C(=O)[O-])N2C(=O)/C(=C/c3ccccn3)[C@H]2S1(=O)=O.[Na+] [Compound 7]	256 μg mL^–1	0.12 μg mL^–1	4 μg mL^–1	16 μg mL^–1	1024 μg mL^–1	1 μg mL^–1	–
